Experimental data reported in US8889878B2, “Haloalky-substituted amides as insecticides and acaricides” (Bayer CropScience AG, priority 2009, dated 2014).

Columns and labels:
[1] = tested on: Boophilus microplus; test: Boophilus microplus test (BOOPMI injection), Example 11; format: in vivo; details: application rate 20 μg/animal, injected into abdomen, after 7 days
Method: Boophilus microplus Test (BOOPMI Injection) • Solvent: dimethyl sulphoxide To prepare an appropriate active ingredient formulation, 10 mg of active ingredient are mixed with 0.5 ml of solvent and the concentrate is diluted with solvent to the desired concentration. The active ingredient solution is injected into the abdomen (Boophilus microplus), and the animals are transferred to dishes and stored in a climate-controlled room. The efficacy was assessed by the number of fertile eggs laid. After 7 days, the efficacy in % is determined. 100% means that none of the ticks has laid any fertile eggs.

[2] = logP by HPLC on reverse-phase column (EEC Directive 79/831 Annex V.A8); format: physicochemical; details: HPLC-MS
Method: The logP values reported in the above Tables and Preparation Examples were determined according to EEC Directive 79/831 Annex V.A8 by HPLC (High Performance Liquid Chromatography) on a reverse-phase column (C18). Temperature 43° C.

[3] = tested on: mustard beetle (Phaedon cochleariae); test: Phaedon test (PHAECO spray treatment), Example 7; format: in vivo; details: application rate 20 g/ha, china cabbage leaf discs sprayed, after 7 days
Method: Phaedon Test (PHAECO Spray Treatment)
(§1) • Solvent: 78.0 parts by weight of acetone • 1.5 parts by weight of dimethylformamide • Emulsifier: 0.5 part by weight of alkylaryl polyglycol ether
To prepare an active ingredient formulation, 1 part by weight of active ingredient is mixed with the stated amounts of solvent and emulsifier, and the concentrate is diluted with emulsifier-containing water to the desired concentration. Leaf discs from china cabbage (Brassica pekinensis) are sprayed with an active ingredient formulation of the desired concentration and, after drying, populated with larvae of the mustard beetle (Phaedon cochleariae).
After 7 days, the efficacy in % is determined. 100% means that all beetle larvae were killed; 0% means that no beetle larvae were killed.

[4] = tested on: green peach aphid (Myzus persicae); test: Myzus test (MYZUPE spray treatment), Example 17; format: in vivo; details: china cabbage leaf discs sprayed, after 6 days
Method: Myzus Test (MYZUPE Spray Treatment)
• Solvent: 78 parts by weight of acetone • 1.5 parts by weight of dimethylformamide • Emulsifier: 0.5 part by weight of alkylaryl polyglycol ether
To prepare an appropriate active ingredient formulation, 1 part by weight of active ingredient is mixed with the stated amounts of solvent and emulsifier, and the concentrate is diluted with emulsifier-containing water to the desired concentration. Leaf discs from china cabbage (Brassica pekinensis) infested by all stages of the green peach aphid (Myzus persicae) are sprayed with an active ingredient formulation of the desired concentration.
After 6 days, the efficacy in % is determined. 100% means that all aphids were killed; 0% means that no aphids were killed.

[5] = tested on: red spider mite (Tetranychus urticae); test: Tetranychus test, OP-resistant (TETRUR spray treatment), Example 8; format: in vivo; details: application rate 20 g/ha, common bean leaf discs sprayed, after 6 days
Method: Tetranychus Test, OP-resistant (TETRUR Spray Treatment)
as §1
To prepare an active ingredient formulation, 1 part by weight of active ingredient is mixed with the stated amounts of solvent and emulsifier, and the concentrate is diluted with emulsifier-containing water to the desired concentration.
Leaf discs from the common bean (Phaseolus vulgaris) infested by all stages of the red spider mite (Tetranychus urticae) are sprayed with an active ingredient formulation of the desired concentration.
After 6 days, the efficacy in % is determined. 100% means that all spider mites were killed; 0% means that no spider mites were killed.

[6] = tested on: armyworm (Spodoptera frugiperda); test: Spodoptera frugiperda test (SPODFR spray treatment), Example 15; format: in vivo; details: maize leaf discs sprayed, after 7 days
Method in brief: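 Caterpillars placed on dried, sprayed Zea mays leaf discs; formulation of acetone, dimethylformamide and emulsifier diluted with emulsifier-containing water to test concentration. Percent kill scored on day 7.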

Row | Structure (SMILES) | efficacy in % (fertile eggs laid) [1] [%] | logP [2] | efficacy in % [3] [%] | efficacy in % ([4]; application rate 500 g/ha) [%] | efficacy in % [5] [%] | efficacy in % ([6]; application rate 500 g/ha) [%] | efficacy in % ([4]; application rate 100 g/ha) [%] | efficacy in % ([6]; application rate 100 g/ha) [%]
1 | O=C(/C=C/c1ccc(C(=O)NCc2ccccn2)c(Cl)c1)NC(c1cccc(C(F)(F)F)c1)C(F)(F)F (stereo not shown) [Ia-21] | 100 | HPLC-MS: logP = 2.75; mass | 100 | 100 | – | – | – | –
2 | O=C(/C=C/c1ccc(C(=O)NCc2ccccn2)c(C(F)(F)F)c1)NC(c1cccc(C(F)(F)F)c1)C(F)(F)F (stereo not shown) [Ia-36] | 100 | HPLC-MS: logP = 2.75; mass | – | – | 100 | – | – | –
3 | O=C(/C=C/c1ccc(C(=O)NCCOCC(F)(F)F)c(C(F)(F)F)c1)NC(c1cccc(C(F)(F)F)c1)C(F)(F)F (stereo not shown) [Ia-47] | – | HPLC-MS: logP = 3.58; mass | 100 | – | 90 | 83 | – | –
4 | O=C(/C=C/c1ccc(C(=O)Nc2ccc(F)cc2)c(C(F)(F)F)c1)NC(c1cccc(C(F)(F)F)c1)C(F)(F)F (stereo not shown) [Ia-48] | – | HPLC-MS: logP = 3.89; mass | 100 | – | 90 | – | – | –
5 | O=C(/C=C/c1ccc(C(=O)NCc2ccncc2)c(C(F)(F)F)c1)NC(c1cccc(C(F)(F)F)c1)C(F)(F)F (stereo not shown) [Ia-49] | – | HPLC-MS: logP = 2; mass | – | – | 90 | – | – | –
6 | O=C(/C=C/c1ccc(C(=O)NCc2cccnc2)c(C(F)(F)F)c1)NC(c1cccc(C(F)(F)F)c1)C(F)(F)F (stereo not shown) [Ia-50] | – | HPLC-MS: logP = 2.23; mass | – | – | 100 | – | – | –
7 | COC(CNC(=O)c1ccc(/C=C/C(=O)NC(c2cccc(C(F)(F)F)c2)C(F)(F)F)cc1C(F)(F)F)OC (stereo not shown) [Ia-51] | – | HPLC-MS: logP = 3.18; mass | 100 | – | 90 | – | – | –
8 | O=C(/C=C/c1ccc(C(=O)NCC2CCCO2)c(C(F)(F)F)c1)NC(c1cccc(C(F)(F)F)c1)C(F)(F)F (stereo not shown) [Ia-52] | – | HPLC-MS: logP = 3.27; mass | – | – | 100 | – | – | –
9 | CC(NC(=O)c1ccc(/C=C/C(=O)NC(c2cccc(C(F)(F)F)c2)C(F)(F)F)cc1C(F)(F)F)C1CC1 (stereo not shown) [Ia-56] | – | HPLC-MS: logP = 3.77; mass | 100 | – | 100 | 83 | – | –
10 | O=C(/C=C/c1ccc(C(=O)NC2CC2F)c(C(F)(F)F)c1)NC(c1cccc(C(F)(F)F)c1)C(F)(F)F (stereo not shown) [Ia-65] | – | HPLC-MS: logP = 3.33; mass | 100 | – | 90 | – | – | –
11 | O=C(/C=C/c1ccc(C(=O)NCc2ccnc(Cl)c2)c(C(F)(F)F)c1)NC(c1cccc(C(F)(F)F)c1)C(F)(F)F (stereo not shown) [Ia-66] | – | HPLC-MS: logP = 3.41; mass | 100 | – | 90 | – | – | –
12 | O=C(/C=C/c1ccc(C(=O)N(C2CCOCC2)C2CC2)c(C(F)(F)F)c1)NC(c1cccc(C(F)(F)F)c1)C(F)(F)F (stereo not shown) [Ia-67] | – | HPLC-MS: logP = 3.77; mass | 100 | 90 | – | – | – | –
13 | CCOC1(NC(=O)c2ccc(/C=C/C(=O)NC(c3cccc(C(F)(F)F)c3)C(F)(F)F)cc2C(F)(F)F)CC1 (stereo not shown) [Ia-68] | – | HPLC-MS: logP = 3.52; mass | 100 | – | 100 | – | – | –
14 | O=C(/C=C/c1ccc(C(=O)NC2(c3ccccn3)CC2)c(C(F)(F)F)c1)NC(c1cccc(C(F)(F)F)c1)C(F)(F)F (stereo not shown) [Ia-70] | – | HPLC-MS: logP = 3.23; mass | 100 | – | 100 | 83 | – | –
15 | O=C(/C=C/c1ccc(C(=O)NCc2ccccc2F)c(C(F)(F)F)c1)NC(c1cccc(C(F)(F)F)c1)C(F)(F)F (stereo not shown) [Ia-74] | – | HPLC-MS: logP = 3.77; mass | 100 | – | 90 | – | – | –
16 | O=C(/C=C/c1ccc(C(=O)NCc2ccc(F)cn2)c(Br)c1)NC(c1cccc(C(F)(F)F)c1)C(F)(F)F (stereo not shown) [Ia-90] | – | HPLC-MS: logP = 3.23 mass | 100 | – | 80 | – | – | –

Row | Structure (SMILES) | efficacy in % (fertile eggs laid) [1] [%] | logP [2] | efficacy in % [3] [%] | efficacy in % ([4]; application rate 500 g/ha) [%] | efficacy in % [5] [%] | efficacy in % ([6]; application rate 500 g/ha) [%] | efficacy in % ([4]; application rate 100 g/ha) [%] | efficacy in % ([6]; application rate 100 g/ha) [%]
17 | O=C(/C=C/c1ccc(C(=O)Nc2ccccn2)c(Br)c1)NC(c1cccc(C(F)(F)F)c1)C(F)(F)F (stereo not shown) [Ia-92] | – | HPLC-MS: logP = 3.47 mass | 100 | – | 80 | – | – | –
18 | CC(NC(=O)c1ccc(/C=C/C(=O)NC(c2cccc(C(F)(F)F)c2)C(F)(F)F)cc1Br)C1CC1 (stereo not shown) [Ia-93] | – | HPLC-MS: logP = 3.42 mass | 100 | – | 90 | – | – | –
19 | CN(C(=O)c1ccc(/C=C/C(=O)NC(c2cccc(C(F)(F)F)c2)C(F)(F)F)cc1Br)C1CC1 (stereo not shown) [Ia-95] | – | HPLC-MS: logP = 3.58 mass | 100 | – | 80 | – | – | –
20 | CCOC1(NC(=O)c2ccc(/C=C/C(=O)NC(c3cccc(C(F)(F)F)c3)C(F)(F)F)cc2Cl)CC1 (stereo not shown) [Ia-96] | – | HPLC-MS: logP = 3.47 mass | 100 | – | 80 | – | – | –
21 | Cc1cc(/C=C/C(=O)NC(c2cccc(C(F)(F)F)c2)C(F)(F)F)ccc1C(=O)Nc1ccc(F)cc1 (stereo not shown) [Ia-99] | – | HPLC-MS: logP = 3.78 mass | 100 | – | 80 | – | – | –
22 | O=C(/C=C/c1ccc(C(=O)Nc2ccncc2)c(Cl)c1)NC(c1cccc(C(F)(F)F)c1)C(F)(F)F (stereo not shown) [Ia-113] | – | HPLC-MS: logP = 1.92 mass | 100 | – | 100 | – | – | –
23 | O=C(/C=C/c1ccc(C(=O)NCc2ncccn2)c(C(F)(F)F)c1)NC(c1cccc(C(F)(F)F)c1)C(F)(F)F (stereo not shown) [Ia-127] | 100 | HPLC-MS: logP = 3.05; mass | – | – | – | – | 90 | 100
24 | COC(=O)C(C)NC(=O)c1ccc(/C=C/C(=O)NC(c2cccc(C(F)(F)F)c2)C(F)(F)F)cc1C(F)(F)F (stereo not shown) [Ia-132] | 100 | HPLC-MS: logP = 3.47; mass | – | – | – | – | 80 | –
25 | O=C(/C=C/c1ccc(C(=O)NC2CCOC2=O)c(C(F)(F)F)c1)NC(c1cccc(C(F)(F)F)c1)C(F)(F)F (stereo not shown) [Ia-136] | 100 | – | – | – | – | – | 100 | –
26 | C#CC(C)NC(=O)c1ccc(/C=C/C(=O)NC(c2cccc(C(F)(F)F)c2)C(F)(F)F)cc1C(F)(F)F (stereo not shown) [Ia-138] | 100 | HPLC-MS: logP = 3.58; mass | – | – | – | – | 80 | 100
27 | O=C(/C=C/c1ccc(C(=O)NC(CF)CF)c(C(F)(F)F)c1)NC(c1cccc(C(F)(F)F)c1)C(F)(F)F (stereo not shown) [Ia-143] | 100 | HPLC-MS: logP = 3.48; mass | – | – | – | – | 100 | 100
28 | CC(C)NC(=O)c1ccc(/C=C/C(=O)NC(c2cccc(C(F)(F)F)c2)C(F)(F)F)cc1Cl (stereo not shown) [Ia-150] | 100 | HPLC-MS: logP = 3.5; mass | – | – | – | – | 100 | –
29 | O=C(/C=C/c1ccc(C(=O)NCc2ncccn2)c(Cl)c1)NC(c1cccc(C(F)(F)F)c1)C(F)(F)F (stereo not shown) [Ia-153] | 100 | HPLC-MS: logP = 2.94; mass | – | – | – | – | 100 | –
30 | CC(NC(=O)c1ccc(/C=C/C(=O)NC(c2cccc(C(F)(F)F)c2)C(F)(F)F)cc1Cl)c1ccccn1 (stereo not shown) [Ia-154] | 100 | HPLC-MS: logP = 3.45; mass | – | – | – | – | 90 | –
31 | O=C(/C=C/c1ccc(C(=O)NCC(F)F)c(Cl)c1)NC(c1cccc(C(F)(F)F)c1)C(F)(F)F (stereo not shown) [Ia-156] | 100 | HPLC-MS: logP = 3.34; mass | – | – | – | – | 100 | 100
32 | COCC(C)NC(=O)c1ccc(/C=C/C(=O)NC(c2cccc(C(F)(F)F)c2)C(F)(F)F)cc1Cl (stereo not shown) [Ia-164] | 100 | HPLC-MS: logP = 3.33; mass | – | – | – | – | 100 | –
